pIC50: −log10 of the molar value. Read-outs that look alike come from different tables or passages of the source.
How the values were obtained:
[1] = test system: IBL-1 (EBV+ DLBCL); test: cells; type: cell-based
Description: (§1) Cell viability assays were performed by plating log-phase cells in RPMI complete media with 20% FBS at 1*10^5 cells/mL, with concentrations of 6-ETI or phospho-6-ETI ranging from 0.1 nM to 100 μM. ATP content at 24, 48 and 72 hours post-treatment was measured by the CellTiter-Glo kit (Promega, Madison, Wis.), or by Trypan blue assay as indicated. The LC50 for 6-ETI in each cell line was determined using online EC50 software at changbioscience.com or using GraphPad Prism to determine the LC50 for 6-ETI, phospho-6-ETI and nucleoside analogs in MM cell lines and primary MM patient samples.

[2] = test system: BC3 (PEL); test: cells; type: cell-based
Description: as §1

[3] = test system: U266 (MM); test: cells; type: cell-based
Description: as §1

[4] = test system: BC3NFRen-luc #3 PEL xenograft; test: PEL xenograft model (BC3NFRen-luc #3 in NOD-SCID mice); type: in vivo; settings: 200 mg/kg for 9 days
Description: The BC3 in vivo xenograft model was set up as previously described (6). Essentially, ˜4-6 week old male NOD-SCID mice (Jackson Labs Stock# 001303) were injected intraperitoneally (I.P.) with 1*10^7 BC3NFRen-luc #3 cells and followed by in vivo imaging every three days. After imaging on day 5 to confirm establishment of the tumor, the mice were randomized to vehicle, low dose and high dose cohorts, with average tumor burden distributed evenly across the groups. Each dose cohort contained 10 mice. Mice were treated for nine days beginning at randomization with vehicle (PBS-Tween80), low dose 6-ETI (150 mg/kg/day), or high dose 6-ETI (300 mg/kg/day). Mice were treated with 200 mg/kg of the 6-ETI analogs (phospho-6ETI and 6-ETI cAMP) for 9 days. We monitored mice for tumor growth by live imaging and weighing, with sacrifice point determined to be a net gain or loss of 10% body weight over a week. Upon reappearance of refractory tumors, mice were re-treated for a further 9-day interval, and followed for a total of 100 days. Compound effects were assessed on overall survival, progression-free survival and tumor burden by Kaplan-Meier curves generated using GraphPad Prism software, and determined p values by 2-tailed analysis with log-rank tests.

[5] = test system: sensitive cell lines (expressing ADK at high levels); test: Viability in 6-ETI-sensitive cell lines; type: cell-based; settings: p6-ETI: sensitive ADK-high lines; c6-ETI: PEL, MM, colon and pancreatic adenocarcinoma lines
Description: as §1

[6] = test system: colon (RKO, HCT116, DID1) and pancreatic (PA-TU-8988T) cancer cell lines; test: Viability of adenocarcinoma cell lines; type: cell-based
Description: as §1

[7] = test system: ADK-low resistant cell lines; test: Viability in ADK-low resistant cell lines; type: cell-based; settings: some lines, not all
Description: as §1

[8] = test system: MM cell lines JJN3, MM1S, U266 and CAG; test: CellTiter-Glo viability assay, MM cell lines; type: cell-based; settings: 48 hrs
Description: as §1

[9] = test system: PEL cell line; test: PEL cell line viability assay of C8-modified analogs; type: cell-based
Description: as §1

[10] = biological target: ADK (Homo sapiens, UniProt P55263); settings: known values; read-out: IC50 of ADK inhibition in intact cells; cited from earlier work
Sequence of ADK (P55263 whole entry): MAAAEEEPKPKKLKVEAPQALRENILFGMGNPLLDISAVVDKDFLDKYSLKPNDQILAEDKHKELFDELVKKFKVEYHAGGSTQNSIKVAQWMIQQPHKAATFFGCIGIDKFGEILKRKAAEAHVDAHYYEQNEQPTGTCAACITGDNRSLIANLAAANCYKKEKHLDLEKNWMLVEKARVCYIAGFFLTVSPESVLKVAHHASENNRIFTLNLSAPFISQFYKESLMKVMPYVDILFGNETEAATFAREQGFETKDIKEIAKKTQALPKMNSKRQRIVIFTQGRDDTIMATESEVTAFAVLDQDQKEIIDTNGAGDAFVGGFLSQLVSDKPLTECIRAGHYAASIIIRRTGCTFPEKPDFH

[11] = test system: BC3 cells treated with 6-ETI; test: 6-ETI viability curves after ADK inhibitor pre-treatment; type: cell-based, human; settings: pre-treatment with 1 μM ADK inhibitor
Description: as §1

[12] = Homo sapiens, 48 h, read-out: LC50 BC3 (PEL) in nM
[13] = Homo sapiens, U-266, 48 h, read-out: LC50 U266 (MM) in nM
[14] = Homo sapiens, 48 h, read-out: LC50 IBL-1 (DLBCL)
[15] = Homo sapiens, 48 h, read-out: LC50 BC3 (PEL)
[16] = Homo sapiens, U-266, 48 h, read-out: LC50 U266 (MM)

Nc1nc(Cl)nc2c1ncn2[C@H]1C[C@H](O)[C@@H](CO)O1 [Cladribine]
CC50 ([1]; Homo sapiens, 48 h, read-out: LC50 IBL-1 (DLBCL) in nM): 290 nM | CC50 [2, 12]: 5240 nM | CC50 [3, 13]: 29200 nM

CCSc1ncnc2c1ncn2[C@@H]1O[C@H](COP(=O)(O)O)[C@@H](O)[C@H]1O [p6-ETI]
tumor growth in vivo [4]: effectively inhibited tumor growth in vivo | effectiveness compared with 6-ETI [5]: equally effective as 6-ETI | LC50 [6]: nanomolar range | effect on resistance of IBL-1 cells ([1]; IBL-1 express low levels of ADK, 48 hrs): partially overcomes resistance | sensitivity of ADK-low resistant cell lines [7]: only partial sensitivity | LC50 [8]: high nM range

O=c1[nH]cnc2c1ncn2[C@H]1CC[C@@H](CO)O1 [Didanosine]
CC50 [1, 14]: > 100000 nM | CC50 [2, 15]: > 100000 nM | CC50 [3, 16]: > 100000 nM

Nc1nc(F)nc2c1ncn2[C@@H]1O[C@H](CO)[C@@H](O)[C@@H]1O [Fludarabine]
CC50 ([1]; 48 hours, CellTiter-Glo, read-out: LC50 IBL-1 (DLBCL)): 28900 nM | CC50 ([2]; 48 hours, CellTiter-Glo, read-out: LC50 BC3 (PEL)): > 100000 nM | CC50 ([3]; 48 hours, CellTiter-Glo, read-out: LC50 U266 (MM)): 90700 nM

CCSc1ncnc2c1nc(N=[N+]=[N-])n2C1OC(CO)C(O)C1O (stereo not shown) [N3 group at C8 position]
pIC50 [9]: 5.95

CCSc1ncnc2c1nc(Cl)n2[C@@H]1O[C@H](CO)[C@@H](O)[C@H]1O [C1 group at C8 position, 8-chloro, 6-thioethyl purine riboside]
pIC50 [9]: 5.85

Nc1ncnc2nc(-c3ccc(N4CCOCC4)nc3)cc(-c3cccc(Br)c3)c12 [ABT-702]
pIC50 [10]: 7.29 | rescue from 6-ETI-induced cell death [11]: effectively rescued PEL cells from cell death

CCSc1ncnc2c1nc(Br)n2[C@@H]1O[C@H](CO)[C@@H](O)[C@H]1O [Br group at C8 position, 8-bromo, 6-thioehtyl purine riboside]
pIC50 [9]: 5.09

Nc1ncnc2c1ncn2[C@@H]1O[C@H](CO)[C@@H](O)[C@@H]1O [Vidarabine]
CC50 [1, 14]: > 100000 nM | CC50 [2, 15]: > 100000 nM | CC50 [3, 16]: > 100000 nM

Sc1ncnc2nc[nH]c12 [6-Mercaptopurine]
CC50 [1, 14]: > 100000 nM | CC50 [2, 12]: 5140 nM | CC50 [3, 13]: 10300 nM

CCSc1ncnc2c1ncn2[C@@H]1O[C@@H]2COP(=O)(O)OC2C1O (stereo partly shown) [c6-ETI]
tumor growth in vivo [4]: effectively inhibited tumor growth in vivo | effectiveness compared with 6-ETI [5]: equally as effective | LC50 [6]: nanomolar range

Nc1ncnc2c1c(I)cn2[C@@H]1C[C@H](N)[C@@H](O)[C@H]1O [Compound A-134974]
pIC50 [10]: 7.30 | rescue from 6-ETI-induced cell death [11]: effectively rescued PEL cells from cell death
